Test results from patent US11629160B2, “Corrole-based frameworks and methods of use thereof” (University of South Florida, priority 2019, dated 2023).

Assay: Singlet oxygen (1O2) generation, DPBF scavenger under 635 nm laser
Settings: 50 μg in 1.0 ml NMP, DPBF 10 μM, 635 nm laser 0.18 W/cm^2, absorbance at 415 nm
Procedure: Singlet Oxygen (^1O2) Generation. In a typical experiment, 50 μg of the monomer or Corrole-COF materials was suspended in 1 mL of N-methylpyrrolidone (NMP) (equilibrated with air at RT) containing 10 μM of singlet oxygen sensor 1,3-diphenylisobenzofuran (DPBF). The mixture solutions were irradiated under a 635 nm laser (0.18 W cm^−2). The characteristic UV-Vis absorption spectra of the DPBF were measured at 415 nm to determine the generation of ^1O2 every 1 min, in which the UV-Vis absorption spectra of samples were collected using a UV-1800 spectrophotometer (Shimadzu, Japan) with a 0.3 cm quartz cuvette at room temperature.
TPAPC-COF was evaluated for its ability to generate ^1O2 (FIGS. 8A and 7B). The photo-generating ^1O2 ability of TPAPC-COF under a 635 nm laser (0.18 W/cm^2) irradiation was investigated by using 1,3-diphenylisobenzofuran (DPBF) as a scavenger, and the process was monitored by time-dependent electronic absorption spectroscopy.

- degradation efficiency (conversion) of DPBF: 56%
SMILES: Nc1ccc(-c2c3nc(c4ccc([nH]4)c(-c4ccc(N)cc4)c4ccc([nH]4)c(-c4ccc(N)cc4)c4ccc2[nH]4)C=C3)cc1 [H3TPAPC, 5,10,15-tris(p-aminophenyl)corrole]
